Measured values reported in PubChem BioAssay (NCI).
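Results reflect a 48-hour exposure of cells in 96-well plates to compound at five concentrations. TGI marks complete inhibition of growth.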

Key:
Assay in all cases: DTP human tumour cell line panel, 48 h
HCT-15 colon = tested on: HCT-15 colon
LOX IMVI melanoma = tested on: LOX IMVI melanoma
MDA-MB-435 = tested on: MDA-MB-435
NCI-H226 lung = tested on: NCI-H226 lung
SN12C renal = tested on: SN12C renal
A549 NSCLC = tested on: A549 NSCLC
SK-MEL-2 melanoma = tested on: SK-MEL-2 melanoma
EKVX NSCLC = tested on: EKVX NSCLC
MCF7 breast = tested on: MCF7 breast
UACC-257 melanoma = tested on: UACC-257 melanoma
A498 renal = tested on: A498 renal
MOLT-4 leukemia = tested on: MOLT-4 leukemia
HT29 colon = tested on: HT29 colon
BT-549 breast = tested on: BT-549 breast
MALME-3M melanoma = tested on: MALME-3M melanoma

SMILES	TGI (HCT-15 colon)	TGI (LOX IMVI melanoma)	TGI (MDA-MB-435)	TGI (NCI-H226 lung)	TGI (SN12C renal)	TGI (A549 NSCLC)	TGI (SK-MEL-2 melanoma)	TGI (EKVX NSCLC)	TGI (MCF7 breast)	TGI (UACC-257 melanoma)	TGI (A498 renal)	TGI (MOLT-4 leukemia)	TGI (HT29 colon)	TGI (BT-549 breast)	TGI (MALME-3M melanoma)
COc1ccc(Nc2nnc(-c3nsc4ccccc34)s2)cc1	> 100 µM	> 100 µM	> 100 µM	> 100 µM	> 100 µM	> 100 µM	> 100 µM	> 100 µM	> 100 µM	> 100 µM	15.8 µM	> 100 µM	> 100 µM	–	–
O=c1oc2ccc3ccccc3c2cc1-c1cn2ccccc2n1	> 100 µM	> 100 µM	> 100 µM	> 100 µM	> 100 µM	> 100 µM	> 100 µM	> 100 µM	–	> 100 µM	–	> 100 µM	77.5 µM	> 100 µM	–
O=C1NC2ON=C(c3ccccc3)C2C2ON=C(c3ccccc3)N12 (stereo unspecified)	> 100 µM	> 100 µM	–	> 100 µM	–	> 100 µM	–	> 100 µM	> 100 µM	> 100 µM	–	–	> 100 µM	> 100 µM	> 100 µM
COc1cc2c(oc(=O)c3c4oc([Si](C)(C)C)cc4cc(OC)c23)c2cccc(OCc3ccccc3)c12	> 100 µM	> 100 µM	–	> 94.4 µM	> 100 µM	> 100 µM	> 100 µM	> 100 µM	–	> 100 µM	> 100 µM	> 100 µM	> 100 µM	–	> 71.5 µM
C=CCN1C(=O)C=C(c2ccccc2)n2ncc3cccc1c32	> 100 µM	> 100 µM	–	> 100 µM	> 100 µM	> 100 µM	> 100 µM	> 100 µM	> 100 µM	> 100 µM	> 100 µM	> 100 µM	> 100 µM	> 100 µM	> 100 µM
COc1ccc2c3c1O[C@]1(C)C34CCN(C)C(C2)C42C=C[C@@]1(OC)c1c(O)ccc(O)c12	–	> 100 µM	–	–	–	> 100 µM	> 100 µM	> 100 µM	–	> 100 µM	> 100 µM	> 100 µM	> 100 µM	–	> 100 µM
C[N+](C)(C)CC(=O)N/N=C/c1oc(-c2c(O)ccc3ccccc23)c(-c2c(O)ccc3ccccc23)c1[N+](=O)[O-]	–	33.3 µM	–	36.3 µM	92.7 µM	81.5 µM	33.4 µM	45 µM	–	51.9 µM	31.6 µM	62.3 µM	38.5 µM	–	28.2 µM
CS(=O)(=O)c1nc(-c2cc3c(c(S(C)(=O)=O)n2)CCC3)cc2c1CCCCC2	> 100 µM	> 100 µM	> 100 µM	> 100 µM	> 100 µM	> 100 µM	63.1 µM	> 100 µM	–	> 100 µM	–	> 100 µM	> 100 µM	58.2 µM	99.6 µM
Cc1cc(=O)[nH]c(-n2[nH]c(C)c(CCO)c2=O)n1	> 100 µM	> 100 µM	> 100 µM	> 100 µM	> 100 µM	> 100 µM	> 100 µM	> 100 µM	> 100 µM	> 100 µM	> 100 µM	–	> 100 µM	–	> 100 µM
C/C(=N\NS(=O)(=O)c1ccc(C)cc1)C(CN1CCCCC1)C(c1ccccc1)c1c(O)c2ccccc2oc1=O (stereo unspecified)	> 100 µM	> 100 µM	–	> 100 µM	> 100 µM	> 100 µM	> 100 µM	> 100 µM	–	> 100 µM	> 100 µM	–	> 100 µM	–	> 100 µM
COC(=O)C(=O)C(C(=O)C(=O)Nc1ccc(F)cc1)c1nc2ccc([N+](=O)[O-])cc2[nH]c1=O (stereo unspecified)	> 100 µM	> 100 µM	–	> 100 µM	> 100 µM	> 100 µM	–	> 100 µM	–	> 100 µM	> 100 µM	–	> 100 µM	–	> 100 µM
O=C(CSc1nnc(-c2ccc(N=Cc3ccc(Cl)cc3)cc2)o1)Nc1ccccc1[N+](=O)[O-]	> 100 µM	> 100 µM	–	> 100 µM	> 100 µM	> 100 µM	> 100 µM	> 100 µM	–	> 100 µM	–	> 100 µM	> 100 µM	–	> 100 µM
COC(=O)[C@@H]1CN(C(C)=O)C(=O)N1	> 100 µM	> 100 µM	> 100 µM	> 100 µM	> 100 µM	> 100 µM	> 100 µM	> 100 µM	–	> 100 µM	> 100 µM	> 100 µM	> 100 µM	–	> 100 µM
O=C1CCCCC/C1=C\c1cccc(Cl)c1	> 100 µM	> 100 µM	94.4 µM	> 100 µM	> 100 µM	> 100 µM	> 100 µM	> 100 µM	–	> 100 µM	> 100 µM	> 100 µM	> 100 µM	> 100 µM	> 100 µM
O=C1/C(=C/c2ccccc2O)N=C(c2ccccc2)N1C1Nc2cc3c(cc2S1)NC(N1C(=O)/C(=C/c2ccccc2O)N=C1c1ccccc1)S3 (stereo unspecified)	> 100 µM	> 100 µM	> 100 µM	> 100 µM	–	–	> 100 µM	> 100 µM	> 100 µM	> 100 µM	> 100 µM	> 100 µM	> 100 µM	–	–
COc1cc(O)c2c(=O)cc(-c3ccc(O)cc3O)oc2c1CC=C(C)C	25.5 µM	28.3 µM	> 100 µM	38 µM	31.5 µM	29.7 µM	39.1 µM	73.6 µM	75.7 µM	86.6 µM	66.4 µM	83.2 µM	16.3 µM	–	33 µM
Nc1ncnn2c(C3OC(CO)C(O)C3O)ccc12 (stereo unspecified)	0.771 µM	0.0463 µM	0.376 µM	0.866 µM	2.7 µM	3.14 µM	0.362 µM	4.23 µM	–	0.417 µM	0.539 µM	0.455 µM	1.45 µM	0.789 µM	0.285 µM
COC1(OC)c2no[n+]([O-])c2CCC1O (stereo unspecified)	> 100 µM	> 100 µM	> 100 µM	> 100 µM	> 100 µM	> 100 µM	> 100 µM	> 100 µM	> 100 µM	> 100 µM	> 100 µM	> 100 µM	> 100 µM	–	> 100 µM

SMILES	TGI (HCT-15 colon)	TGI (LOX IMVI melanoma)	TGI (MDA-MB-435)	TGI (NCI-H226 lung)	TGI (SN12C renal)	TGI (A549 NSCLC)	TGI (SK-MEL-2 melanoma)	TGI (EKVX NSCLC)	TGI (MCF7 breast)	TGI (UACC-257 melanoma)	TGI (A498 renal)	TGI (MOLT-4 leukemia)	TGI (HT29 colon)	TGI (BT-549 breast)	TGI (MALME-3M melanoma)
CC[C@]1(Cc2ccc(OC)c(OC)c2)C=[N+]([O-])O[C@H](OC2CCCC2(c2ccccc2)c2ccccc2)[C@@H]1OC(=O)c1ccccc1 (stereo partly specified)	> 100 µM	> 27.5 µM	> 46.3 µM	> 100 µM	> 88.2 µM	> 100 µM	37.5 µM	> 23.8 µM	> 24.9 µM	> 66.5 µM	–	> 21.9 µM	> 71.1 µM	> 100 µM	–
O=C(CN1CCCCC1)Nc1ccc2sc3ccccc3c(=O)c2n1	40.2 µM	26.4 µM	26.2 µM	–	68.3 µM	31.7 µM	41 µM	89.3 µM	77.9 µM	39.7 µM	–	30 µM	> 100 µM	43.1 µM	49 µM
CSc1nc(C#N)c(/N=C\N(C)C)n1C	> 100 µM	> 100 µM	> 100 µM	> 100 µM	> 100 µM	> 100 µM	> 100 µM	> 100 µM	–	> 100 µM	> 100 µM	> 100 µM	–	> 100 µM	> 100 µM
O=c1[nH]c2cc(Cl)ccc2nc1/C(=N\O)C(O)c1cccc([N+](=O)[O-])c1 (stereo unspecified)	–	> 100 µM	–	> 100 µM	> 100 µM	> 100 µM	–	> 100 µM	–	> 100 µM	–	> 100 µM	> 100 µM	–	> 100 µM
O=C(ON=C1c2ccccc2C(Br)C(Br)c2ccccc21)c1cc([N+](=O)[O-])cc([N+](=O)[O-])c1 (stereo unspecified)	42.7 µM	28.8 µM	35.3 µM	48.6 µM	35.8 µM	75.7 µM	> 71 µM	59.8 µM	48 µM	33.2 µM	33.1 µM	45.1 µM	37.7 µM	–	33 µM
CCOC(CN(C)C(=O)Nc1cccc2ccccc12)OCC	> 10 µM	> 10 µM	> 10 µM	> 10 µM	> 10 µM	> 10 µM	> 10 µM	> 10 µM	> 10 µM	> 10 µM	> 10 µM	> 10 µM	> 10 µM	–	> 10 µM
Cc1csc2[n+]1C(=O)/C(=C\c1ccc([N+](=O)[O-])cc1)S2	–	60.4 µM	59.9 µM	26.9 µM	99.3 µM	> 100 µM	63.3 µM	–	> 100 µM	> 100 µM	45.5 µM	> 100 µM	60.2 µM	–	–
CC(=O)OCC1=C(CCC#N)N2C(=O)C(NC(=O)Cc3cccs3)C2S(=O)C1 (stereo unspecified)	> 100 µM	> 100 µM	–	> 100 µM	> 100 µM	> 100 µM	> 100 µM	> 100 µM	–	> 100 µM	> 100 µM	> 100 µM	> 100 µM	–	> 100 µM
O=C(c1cccs1)N(C(=S)N1CCN(c2ccccn2)CC1)c1ccccc1	> 100 µM	> 100 µM	–	84.4 µM	> 100 µM	> 100 µM	> 100 µM	–	–	> 100 µM	–	> 100 µM	> 100 µM	–	> 100 µM
CC(=O)OC1COC(n2c(O)c(N=NC(N)=S)c3cc(Br)ccc32)C(OC(C)=O)C1OC(C)=O (stereo unspecified)	> 100 µM	> 100 µM	–	> 100 µM	> 100 µM	> 100 µM	> 100 µM	> 100 µM	–	> 100 µM	–	> 100 µM	> 100 µM	–	> 100 µM
CCOC(=O)c1cnc2oc3ccc(O)cc3c2c1C	> 100 µM	> 100 µM	> 100 µM	> 100 µM	> 100 µM	> 100 µM	> 100 µM	> 100 µM	> 100 µM	> 100 µM	> 100 µM	> 100 µM	> 100 µM	–	> 100 µM
NC(=O)N/N=C(\CC1OC(=O)c2ccccc21)c1ccco1 (stereo unspecified)	> 100 µM	> 100 µM	–	> 100 µM	–	> 100 µM	> 100 µM	> 100 µM	–	> 100 µM	> 100 µM	> 100 µM	> 100 µM	–	> 100 µM
Cc1ccc(S(=O)(=O)n2cc(-c3cc(C(F)(F)F)ccn3)c3cc(Br)ccc32)cc1	> 100 µM	92.2 µM	> 100 µM	57 µM	88 µM	51.8 µM	10.8 µM	> 100 µM	26 µM	> 100 µM	46.9 µM	> 100 µM	> 100 µM	–	52.7 µM
Cn1c(=O)c(Br)c(C=O)n(CCO[N+](=O)[O-])c1=O	20 µM	5.51 µM	21.6 µM	> 100 µM	17.4 µM	33 µM	15.8 µM	7.07 µM	6.17 µM	–	33.4 µM	5.8 µM	–	–	–
COC(=O)N/N=C(\Cc1ccccc1)CN(C)C	–	> 100 µM	–	–	–	> 100 µM	> 100 µM	> 100 µM	–	> 100 µM	> 100 µM	> 100 µM	> 100 µM	–	> 100 µM
CNS(=O)(=O)NN(C)S(=O)(=O)c1ccccc1	> 100 µM	> 100 µM	–	> 100 µM	> 100 µM	> 100 µM	> 100 µM	> 100 µM	–	> 100 µM	> 100 µM	> 100 µM	> 100 µM	–	> 100 µM
CCc1n[nH]c(=O)n1/N=C/c1c(O)ccc2ccccc12	> 100 µM	> 100 µM	> 100 µM	–	> 100 µM	> 100 µM	> 100 µM	> 100 µM	> 100 µM	> 100 µM	–	> 100 µM	–	> 100 µM	–
